Source: PMC5915086 (Oncotarget, 2018)
“Also recorded” adds a separate entry of the source.

How the values were obtained:
PRMT6 = target: T1, PRMT6 (Homo sapiens, UniProt Q96LA8); test: PRMT6 methyltransferase scintillation proximity assay; format: biochemical
T1 construct: 1–375; made in house
Method: (§4) In the scintillation proximity assay (SPA), specific amounts of enzyme and biotinylated peptide substrate were mixed with the compound and the reaction was initiated by adding SAM. IC50 values were measured at the apparent Km concentrations of the substrate and SAM. The reaction was quenched by adding an equal volume of 7.5 M guanidine hydrochloride, and the reaction product was measured by SPA using FlashPlate Plus and TopCount NXT HTS plate reader (both from Perkin Elmer Life Sciences).
(§5) The selectivity assay was performed as previously described [31]. The effect of test compounds on the methyltransferase activities of Euchromatic histone-lysine N-methyltransferase 2 (G9a), G9a-like protein (GLP), Suppressor of variegation 3-9 homolog (SUV39H)1, SUV39H2, SUV420H1, SUV420H2, SET domain (SETD)2, SETD8, SETD bifurcated 1 (SETDB1), SETD7, Mixed-lineage leukemia (MLL)1 trimeric complex, MLL3 pentameric complex, Enhancer of zeste homolog (EZH)2 trimeric complex, PRMT1, PRMT3, PRMT4, PRMT5/Methylosome protein (MEP)50 complex, PRMT6, PRMT7, PRMT8, PRMT9, PR domain zinc finger protein (PRDM)9, SET and MYND domain-containing (SMYD)2, SMYD3, and DNA methyltransferase (DNMT)1 was assessed by monitoring the incorporation of a tritium-labeled methyl group into substrates with the scintillation proximity assay [32]. […]

PRMT3 = target: T2, PRMT3 (Homo sapiens, UniProt O60678); test: PRMT3 methyltransferase scintillation proximity assay; format: biochemical
T2 construct: 106–426 (within the); made in house
Method: as §4, §5

[1] = target: T3, PRMT5/Methylosome protein (MEP)50 complex (Homo sapiens, UniProt O14744); test: PRMT5 methyltransferase scintillation proximity assay; format: biochemical
T3 construct: 1–637 (PRMT5); made in house
T3 sequence (O14744 whole entry): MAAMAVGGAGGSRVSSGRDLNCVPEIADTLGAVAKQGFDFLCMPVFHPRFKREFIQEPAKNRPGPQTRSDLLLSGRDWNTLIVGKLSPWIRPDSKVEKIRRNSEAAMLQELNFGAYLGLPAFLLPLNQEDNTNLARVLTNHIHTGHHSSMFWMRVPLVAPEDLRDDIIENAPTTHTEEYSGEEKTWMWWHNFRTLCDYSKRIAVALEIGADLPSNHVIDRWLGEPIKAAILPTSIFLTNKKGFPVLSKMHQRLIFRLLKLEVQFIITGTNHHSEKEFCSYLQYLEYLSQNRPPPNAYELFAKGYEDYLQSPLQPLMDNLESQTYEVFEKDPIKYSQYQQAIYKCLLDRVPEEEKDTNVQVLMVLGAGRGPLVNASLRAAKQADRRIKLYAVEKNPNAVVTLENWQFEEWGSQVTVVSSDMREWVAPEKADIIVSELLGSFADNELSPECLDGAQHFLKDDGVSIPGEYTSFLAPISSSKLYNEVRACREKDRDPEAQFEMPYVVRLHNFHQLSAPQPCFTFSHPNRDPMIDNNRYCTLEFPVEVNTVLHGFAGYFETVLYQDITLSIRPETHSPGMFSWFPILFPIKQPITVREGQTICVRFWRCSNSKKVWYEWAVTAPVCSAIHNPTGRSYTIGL
T3 sequence (Q9BQA1 whole entry partner): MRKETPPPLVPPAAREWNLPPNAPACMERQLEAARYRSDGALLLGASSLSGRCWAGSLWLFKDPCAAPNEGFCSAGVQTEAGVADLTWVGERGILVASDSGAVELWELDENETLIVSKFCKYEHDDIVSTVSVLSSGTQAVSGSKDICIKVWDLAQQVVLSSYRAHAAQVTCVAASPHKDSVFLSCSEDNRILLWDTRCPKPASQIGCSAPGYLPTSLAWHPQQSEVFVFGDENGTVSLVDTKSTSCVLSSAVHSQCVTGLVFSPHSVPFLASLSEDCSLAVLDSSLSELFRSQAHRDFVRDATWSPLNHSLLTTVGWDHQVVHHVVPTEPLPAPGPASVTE
Method: as §4, §5

PRMT7 = target: T4, PRMT7 (Homo sapiens, UniProt Q9NVM4); test: PRMT7 methyltransferase scintillation proximity assay; format: biochemical
T4 construct: 1–692; made in house
T4 sequence (Q9NVM4 whole entry): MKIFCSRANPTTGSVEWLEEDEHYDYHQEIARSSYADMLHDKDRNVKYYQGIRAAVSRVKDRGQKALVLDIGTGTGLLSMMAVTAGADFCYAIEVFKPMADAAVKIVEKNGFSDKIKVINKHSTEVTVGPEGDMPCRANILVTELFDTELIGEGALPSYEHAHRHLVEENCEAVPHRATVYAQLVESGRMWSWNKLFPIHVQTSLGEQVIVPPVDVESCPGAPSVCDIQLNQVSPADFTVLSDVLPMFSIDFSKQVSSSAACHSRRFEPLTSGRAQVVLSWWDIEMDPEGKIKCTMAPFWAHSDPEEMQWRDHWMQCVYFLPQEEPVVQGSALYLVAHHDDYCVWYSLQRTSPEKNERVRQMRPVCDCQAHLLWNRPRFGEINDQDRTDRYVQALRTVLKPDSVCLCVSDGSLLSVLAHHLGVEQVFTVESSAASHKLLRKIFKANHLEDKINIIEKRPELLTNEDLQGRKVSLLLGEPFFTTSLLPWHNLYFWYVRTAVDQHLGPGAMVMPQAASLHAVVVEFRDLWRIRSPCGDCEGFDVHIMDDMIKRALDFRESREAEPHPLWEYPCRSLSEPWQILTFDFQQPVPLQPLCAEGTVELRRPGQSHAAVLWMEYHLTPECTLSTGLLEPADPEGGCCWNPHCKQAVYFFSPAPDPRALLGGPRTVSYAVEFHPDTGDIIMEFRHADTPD
Method: as §4, §5

PRMT8 = target: T5, PRMT8 (Homo sapiens, UniProt Q9NR22); test: PRMT8 methyltransferase scintillation proximity assay; format: biochemical
T5 construct: 1–394; made in house
T5 sequence (Q9NR22 whole entry): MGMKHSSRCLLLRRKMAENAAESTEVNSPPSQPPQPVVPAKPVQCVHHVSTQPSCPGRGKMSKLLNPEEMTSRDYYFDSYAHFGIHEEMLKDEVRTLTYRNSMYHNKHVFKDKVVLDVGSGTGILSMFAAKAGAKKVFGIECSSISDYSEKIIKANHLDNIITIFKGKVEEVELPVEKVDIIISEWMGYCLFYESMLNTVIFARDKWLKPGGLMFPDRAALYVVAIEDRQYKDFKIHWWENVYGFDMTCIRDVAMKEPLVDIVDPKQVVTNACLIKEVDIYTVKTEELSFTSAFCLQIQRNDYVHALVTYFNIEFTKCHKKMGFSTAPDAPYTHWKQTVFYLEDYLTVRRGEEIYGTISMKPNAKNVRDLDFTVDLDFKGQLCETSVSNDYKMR
Method: as §4, §5

PRMT9 = target: T6, PRMT9 (Homo sapiens, UniProt Q6P2P2); test: PRMT9 methyltransferase scintillation proximity assay; format: biochemical
T6 construct: 1–845; made in house
T6 sequence (Q6P2P2 whole entry): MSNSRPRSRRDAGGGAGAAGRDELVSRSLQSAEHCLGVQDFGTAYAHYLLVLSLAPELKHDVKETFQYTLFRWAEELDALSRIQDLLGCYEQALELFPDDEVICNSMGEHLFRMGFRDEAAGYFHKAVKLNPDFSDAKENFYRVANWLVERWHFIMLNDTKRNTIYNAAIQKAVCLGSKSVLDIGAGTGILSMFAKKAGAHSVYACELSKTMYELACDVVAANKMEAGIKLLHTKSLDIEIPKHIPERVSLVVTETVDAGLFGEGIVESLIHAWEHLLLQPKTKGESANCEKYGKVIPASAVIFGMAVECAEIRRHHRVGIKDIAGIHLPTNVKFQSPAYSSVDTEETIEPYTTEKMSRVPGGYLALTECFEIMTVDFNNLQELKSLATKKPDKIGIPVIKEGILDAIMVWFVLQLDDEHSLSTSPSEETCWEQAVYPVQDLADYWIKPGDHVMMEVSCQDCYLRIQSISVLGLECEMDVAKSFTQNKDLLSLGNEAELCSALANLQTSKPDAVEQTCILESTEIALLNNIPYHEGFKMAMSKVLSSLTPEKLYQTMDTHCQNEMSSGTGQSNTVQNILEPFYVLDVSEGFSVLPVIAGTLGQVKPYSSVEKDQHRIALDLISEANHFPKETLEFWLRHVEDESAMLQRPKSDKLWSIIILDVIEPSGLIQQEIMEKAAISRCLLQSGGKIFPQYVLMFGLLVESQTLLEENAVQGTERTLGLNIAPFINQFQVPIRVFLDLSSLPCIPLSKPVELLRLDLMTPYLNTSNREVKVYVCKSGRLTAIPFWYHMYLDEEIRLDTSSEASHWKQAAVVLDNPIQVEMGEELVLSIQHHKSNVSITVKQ
Method: as §4

[2] = system: 24 protein lysine methyltransferases and DNA methyltransferases; test: Selectivity assay against other methyltransferases; format: biochemical; details: for inhibition of other methyltransferases: tested at 1 and 10 μM
Method: The selectivity assay was performed as previously described [31]. The effect of test compounds on the methyltransferase activities of Euchromatic histone-lysine N-methyltransferase 2 (G9a), G9a-like protein (GLP), Suppressor of variegation 3-9 homolog (SUV39H)1, SUV39H2, SUV420H1, SUV420H2, SET domain (SETD)2, SETD8, SETD bifurcated 1 (SETDB1), SETD7, Mixed-lineage leukemia (MLL)1 trimeric complex, MLL3 pentameric complex, Enhancer of zeste homolog (EZH)2 trimeric complex, PRMT1, PRMT3, PRMT4, PRMT5/Methylosome protein (MEP)50 complex, PRMT6, PRMT7, PRMT8, PRMT9, PR domain zinc finger protein (PRDM)9, SET and MYND domain-containing (SMYD)2, SMYD3, and DNA methyltransferase (DNMT)1 was assessed by monitoring the incorporation of a tritium-labeled methyl group into substrates with the scintillation proximity assay [32]. Briefly, a 10-μl reaction containing ^3H-SAM and substrate at concentrations close to the apparent Km values for each enzyme was prepared. Two concentrations (1 and 10 μM) of compound were tested. The reactions were quenched with 10 μl of 7.5 M guanidine hydrochloride; 180 μl of 20 mM Tris buffer (pH 8.0) were added, and the mixture was transferred to a 96-well FlashPlate followed by incubation for 1 h. The counts per minute (CPM) was measured on a TopCount plate reader; the CPM in the absence of compound or enzyme was defined as 100% activity and background (0%), respectively, for each dataset.

PRMT4 [3] = target: T7, PRMT4 (Homo sapiens, UniProt Q86X55); test: Differential static light scattering (DSLS) binding; details: at 80 μM
T7 sequence (Q86X55 1-608): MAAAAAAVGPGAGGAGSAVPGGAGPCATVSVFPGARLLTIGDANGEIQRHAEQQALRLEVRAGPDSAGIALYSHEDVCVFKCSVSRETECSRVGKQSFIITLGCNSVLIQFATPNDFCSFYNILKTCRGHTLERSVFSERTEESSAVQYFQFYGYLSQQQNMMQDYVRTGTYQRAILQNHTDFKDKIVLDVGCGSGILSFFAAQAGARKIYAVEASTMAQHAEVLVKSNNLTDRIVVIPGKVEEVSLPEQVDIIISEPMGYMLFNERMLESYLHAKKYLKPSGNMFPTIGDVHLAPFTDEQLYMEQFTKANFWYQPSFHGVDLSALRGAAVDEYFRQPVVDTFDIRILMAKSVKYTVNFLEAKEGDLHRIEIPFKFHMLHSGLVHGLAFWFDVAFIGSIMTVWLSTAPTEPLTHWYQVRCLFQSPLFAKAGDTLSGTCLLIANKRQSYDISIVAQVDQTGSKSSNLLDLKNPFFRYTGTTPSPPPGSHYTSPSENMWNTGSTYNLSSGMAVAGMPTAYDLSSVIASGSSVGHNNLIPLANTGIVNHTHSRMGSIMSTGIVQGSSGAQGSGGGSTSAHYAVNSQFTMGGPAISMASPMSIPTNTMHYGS
Method: DSLS was performed as previously described [34] using 100 mM HEPES (pH 7.5), 150 mM NaCl, 3% DMSO, and 0.4 mg ml^−1 (6 μM) protein in a 10-μl reaction volume.

[4] = system: dimethylation of BAF155 (PRMT4 substrate); test: BAF155 dimethylation in HEK293 cells, western blotting; format: cell-based, human; details: 3 days
Method: (§6) Graphs represent nonlinear curve fits of dimethyl-BAF155 and dimethyl-MED12 signal intensities normalized to total BAF155 or MED12, respectively. Data represent mean ± SEM of two independent experiments prepared in triplicate.
(§7) After incubation for 3 min at room temperature, sodium dodecyl sulfate (SDS) was added to a final concentration of 1%. […] Blots were blocked for 1 h in blocking buffer composed of 5% milk and 0.1% Tween 20 in phosphate-buffered saline (PBS) and then incubated overnight at 4°C in blocking buffer containing primary antibodies against MED12 (1:1000) (Abnova, Taipei, Taiwan; H00009968-A01), MED12 with asymmetrically dimethylated arginine (1:1000; gift from Dr. Mark Bedford and Cell Signaling Technology, Danvers, MA, USA), BAF155 (1:500) (Santa Cruz Biotechnology, Santa Cruz, CA, USA; sc32763), or R1064-dimethylated BAF155 (1:2000) (Millipore; ABE1339). […] The signal was detected on an Odyssey scanner (LI-COR Biosciences) at 800 and 700 nm.

[5] = system: dimethylation of MED12 (PRMT4 substrate); test: MED12 dimethylation in HEK293 cells, western blotting; format: cell-based, human; details: 3 days
Method: as §6, §7

[6] = system: panel of 89 (69 solid and 20 hematologic) cancer cell lines; test: Cell panel viability, CellTiter-Glo, 3 days; format: cell-based, human; details: 3 μM
Method: In addition, to further validate the role of PRMT4 in MM cell growth, we performed PRMT4 knockdown in NCI-H929 cells and observed PRMT4 knockdown-induced growth inhibition (Supplementary Figure 5). Thus, pharmacological inhibition of PRMT4 by small molecules may be a therapeutic option for some MM treatment.
(§1) Red dots indicate MM cell lines. […] Data are presented as mean ± standard deviation (n = 3). IC50 values were calculated by nonlinear regression analysis of % inhibition. […] ATP concentration was calculated based on chemiluminescence values relative to the 0 nM value (control) in each cell line. PRMT4 mRNA expression levels in MM cells were determined with the Ion Ampliseq transcriptome assay and were normalized to that of glyceraldehyde 3-phosphate dehydrogenase (GAPDH) in each cell line.
(§2) Chemiluminescence was measured with a microplate reader. […] K562 cells were cultured in RPMI 10% FBS.

KMS-11 cells = test: MM cell growth, CellTiter-Glo, 6 days; format: cell-based, human; details: KMS-11, 6 days
Method: as §1, §2

KMS-12BM cells = test: MM cell growth, CellTiter-Glo, 6 days; format: cell-based, human
Method: as §1, §2

KMS-12PE cells = test: MM cell growth, CellTiter-Glo, 6 days; format: cell-based, human
Method: as §1, §2

KMS-20 cells = test: MM cell growth, CellTiter-Glo, 6 days; format: cell-based, human; details: KMS-20, 6 days
Method: as §1, §2

KMS-26 cells = test: MM cell growth, CellTiter-Glo, 6 days; format: cell-based, human; details: KMS-26, 6 days
Method: as §1, §2

KMS-27 cells = test: MM cell growth, CellTiter-Glo, 6 days; format: cell-based, human; details: KMS-27, 6 days
Method: as §1, §2

KMS-28BM cells = test: MM cell growth, CellTiter-Glo, 6 days; format: cell-based, human
Method: as §1, §2

MM.1R cells = test: MM cell growth, CellTiter-Glo, 6 days; format: cell-based, human
Method: as §1, §2

MM.1S cells = test: MM cell growth, CellTiter-Glo, 6 days; format: cell-based, human
Method: as §1, §2

RPMI8226 cells = test: MM cell growth, CellTiter-Glo, 6 days; format: cell-based, human; details: RPMI8226, 6 days
Method: as §1, §2

U266B1 cells = test: MM cell growth, CellTiter-Glo, 6 days; format: cell-based, human; details: U266B1, 6 days
Method: as §1, §2

[7] = system: acute myeloid leukemia, colon cancer, or lung cancer cell lines; test: Proliferation of non-MM cancer cell lines, 6 days; format: cell-based, human
Method: as §2
6 days. Relative ATP concentration was calculated based on chemiluminescence relative to the 0 nM value (control). Data are presented as
mean ± standard deviation (n = 3).
(§3) (1 picture or pasted object on this page, not shown here)

[8] = system: BAF155 dimethylation in NCI-H929 cells; test: BAF155 dimethylation in MM cells, western blotting; format: cell-based, human
Method: (§8) The lysates were separated by SDS-polyacrylamide gel electrophoresis and transferred to a nitrocellulose membrane using an iBlot Transfer Stack and iBlot Gel Transfer Device (Thermo Fisher Scientific, Waltham, MA, USA). […] The membrane was incubated with ImmunoStar LD (Wako Pure Chemical Industries, Osaka, Japan), and signals were detected with an ImageQuant LAS-3000 imaging system (Fujifilm, Tokyo, Japan).

[9] = system: BAF155 dimethylation in KMS-27 cells; test: BAF155 dimethylation in MM cells, western blotting; format: cell-based, human
Method: as §8

[10] = system: BAF155 dimethylation in U266B1 cells; test: BAF155 dimethylation in MM cells, western blotting; format: cell-based, human
Method: as §8

NCI-H929 cells = test: Cell cycle analysis by flow cytometry (DNA content); format: cell-based, human; details: for G1 cell fraction / G2-M cell fraction / S cell fraction / sub-G1 cell fraction: NCI-H929, 1 μM, 72 h
Method: To measure DNA content for cell cycle distribution analysis, cells were incubated with 70% ethanol/PBS (v/v) overnight. Fixed cells were stained with propidium iodide and analyzed on a FACS LSRFortessa system (BD Biosciences, Franklin Lakes, NJ, USA).

K562 cells = test: K562 cell viability, SYTOX Blue flow cytometry; format: cell-based; details: 3 μM TP-064, 5 μM SGC0946, 6 days; preliminary experiments
Method: as §2
growth. […] The inhibitors were topped up after
3 days. After 6 days, cells were stained with SYTOX Blue dead cell stain and the number of viable cells was determined by flow cytometry.
Data are presented as mean ± SD (n = 5). The predicted additive effect was calculated as Fa + Fb × (1 − Fa), where Fa and Fb are the
as §3

PRMT4 [11] = target: T7, PRMT4; test: Substrate competition assay (mechanism of action); format: biochemical; set-up: 1–608; made in house; details: versus SAM and substrate peptide
Method: The substrate competition assays were performed by measuring IC50 values at various concentrations of one substrate (e.g., peptide) and at saturating concentrations of the other (e.g., SAM) and vice versa, as previously described.

PRMT1 = target: T8, PRMT1 (Homo sapiens, UniProt Q99873); test: PRMT1 methyltransferase scintillation proximity assay; format: biochemical
T8 construct: 30–371; made in house
T8 sequence (Q99873 30-371): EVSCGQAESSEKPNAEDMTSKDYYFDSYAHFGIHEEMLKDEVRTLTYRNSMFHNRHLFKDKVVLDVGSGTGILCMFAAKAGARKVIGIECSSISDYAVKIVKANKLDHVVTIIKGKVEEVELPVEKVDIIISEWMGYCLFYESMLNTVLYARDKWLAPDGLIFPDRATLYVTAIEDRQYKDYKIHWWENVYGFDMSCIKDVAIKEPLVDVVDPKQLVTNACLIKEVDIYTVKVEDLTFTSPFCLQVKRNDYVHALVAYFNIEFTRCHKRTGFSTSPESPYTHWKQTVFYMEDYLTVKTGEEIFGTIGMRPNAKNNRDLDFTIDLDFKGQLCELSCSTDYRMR
Method: as §4

PRMT4 [12] = target: T7, PRMT4; test: PRMT4 methyltransferase scintillation proximity assay; format: biochemical; set-up: 1–608; made in house
Method: as §4

T1 sequence (Q96LA8 whole entry): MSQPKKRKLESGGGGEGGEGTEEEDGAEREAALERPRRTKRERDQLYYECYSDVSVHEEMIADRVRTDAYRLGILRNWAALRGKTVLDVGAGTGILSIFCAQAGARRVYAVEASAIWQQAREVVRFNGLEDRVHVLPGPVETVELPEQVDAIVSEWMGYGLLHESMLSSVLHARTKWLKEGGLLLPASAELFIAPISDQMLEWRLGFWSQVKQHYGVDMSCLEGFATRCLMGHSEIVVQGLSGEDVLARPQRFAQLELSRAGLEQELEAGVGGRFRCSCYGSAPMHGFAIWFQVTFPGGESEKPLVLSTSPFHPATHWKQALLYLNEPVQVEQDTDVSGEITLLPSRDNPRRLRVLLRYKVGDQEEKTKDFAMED
T2 sequence (O60678 211-531 limits assumed): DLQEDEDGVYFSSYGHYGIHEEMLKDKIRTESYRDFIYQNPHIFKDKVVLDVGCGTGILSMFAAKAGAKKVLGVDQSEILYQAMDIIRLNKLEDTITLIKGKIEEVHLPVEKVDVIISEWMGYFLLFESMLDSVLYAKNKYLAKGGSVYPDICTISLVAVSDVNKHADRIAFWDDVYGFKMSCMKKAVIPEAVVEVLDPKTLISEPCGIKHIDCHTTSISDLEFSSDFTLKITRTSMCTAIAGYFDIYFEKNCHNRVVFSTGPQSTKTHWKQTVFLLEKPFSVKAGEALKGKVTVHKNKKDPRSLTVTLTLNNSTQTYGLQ

CNCCN1CCC(c2cc(CN(C)C(=O)c3cccc(Oc4ccccc4)c3)ccn2)CC1 [TP-064, N-methyl-N-((2-(1-(2-(methylamino)ethyl)piperidin-4-yl)pyridin-4-yl)methyl)-3-phenoxybenzamide]
IC50 (PRMT6): 1300 ± 400 nM
IC50 (PRMT3): > 10000 nM
IC50 [1]: > 10000 nM
IC50 (PRMT7): > 10000 nM
IC50 (PRMT8): 8100 ± 600 nM
IC50 (PRMT9): > 10000 nM
IC50 [2]: > 10000 nM
inhibition of other methyltransferases [2]: did not inhibit
increase of aggregation temperature (Tagg), DSLS (PRMT4 [3]): about 6 °C
IC50 ([4]; Homo sapiens, 72 h): 340 ± 30 nM
IC50 ([5]; Homo sapiens, 72 h): 43 ± 10 nM
growth inhibition in cancer cell panel [6]: inhibited the growth of a subset of MM cell lines
Growth at 3 μM (%) (KMS-11 cells): -17.2%
Growth at 3 μM (%) (KMS-12BM cells): -8.2%
Growth at 3 μM (%) (KMS-12PE cells): -4.4%
Growth at 3 μM (%) (KMS-20 cells): -22.5%
Growth at 3 μM (%) (KMS-26 cells): -19.5%
Growth at 3 μM (%) (KMS-27 cells): -17.2%
Growth at 3 μM (%) (KMS-28BM cells): -24.1%
Growth at 3 μM (%) (MM.1R cells): -37.8%
Growth at 3 μM (%) (MM.1S cells): -31.0%
IC50 (RPMI8226 cells; Homo sapiens, RPMI-8226, 144 h): 886 nM
Growth at 3 μM (%) (RPMI8226 cells): -58.3%
Growth at 3 μM (%) (U266B1 cells): -24.4%
anti-proliferative activity [7]: did not exhibit; also recorded: no effect
IC50 ([8]; Homo sapiens, 72 h, NCI-H929, 3 days, read-out: methyl / total BAF155 IC50): 716 nM
IC50 ([9]; Homo sapiens, 72 h, KMS-27, 3 days, read-out: methyl / total BAF155 IC50): 400 nM
IC50 ([10]; Homo sapiens, 72 h, U266B1, 3 days, read-out: methyl / total BAF155 IC50): 486 nM
G1 cell fraction (NCI-H929 cells): 63.5%
G2-M cell fraction (NCI-H929 cells): 20.2%
S cell fraction (NCI-H929 cells): 7.89%
sub-G1 cell fraction (NCI-H929 cells): 5.73%
cytotoxic response of K562 cells (K562 cells): weak response
mode of inhibition (PRMT4 [11]): non-competitive

COCCN1CCC(c2cc(CN(C)C(=O)c3cccc(Oc4ccccc4)c3)ccn2)CC1 [TP-064N, N-((2-(1-(2-methoxyethyl)piperidin-4-yl)pyridin-4-yl)methyl)-N-methyl-3-phenoxybenzamide]
IC50 (PRMT6): > 10000 nM
IC50 (PRMT1): > 10000 nM
IC50 (PRMT3): > 10000 nM
IC50 [1]: > 10000 nM
IC50 (PRMT7): > 10000 nM
IC50 (PRMT8): > 10000 nM
IC50 (PRMT9): > 10000 nM
IC50 [2]: > 10000 nM
inhibition of other methyltransferases [2]: completely inactive
inhibition of BAF155 dimethylation ([4]; up to 10 μM): did not inhibit
inhibition of MED12 dimethylation ([5]; up to 10 μM): did not inhibit
effect on dimethyl-BAF155 level ([8]; NCI-H929, 72 h): no effect
effect on dimethyl-BAF155 level ([9]; KMS-27, 72 h): no effect
effect on dimethyl-BAF155 level ([10]; U266B1, 72 h): no effect
effect on cell cycle (NCI-H929 cells; NCI-H929): no/little effect
G1 cell fraction (NCI-H929 cells): 53.2%
G2-M cell fraction (NCI-H929 cells): 24.1%
S cell fraction (NCI-H929 cells): 13.2%
sub-G1 cell fraction (NCI-H929 cells): 5.14%
IC50 (PRMT4 [12]): 2500 ± 600 nM
